Several values for one entry are separate records, joined by “and”; a condition that tells them apart may be missing. Equal entries are not always repeated.
Legend:
[1] = tested on: youths symptomatic for an autistic disorder; details: mean dose 1,110 mg/day, 10 to 30 weeks; cited from earlier work
[2] = tested on: extracellular dopamine levels in the nucleus accumbens; details: rats; dependent on glycine receptor activation; cited from earlier work
[3] = tested on: leptin, beta endorphin, cortisol; details: humans with alcohol dependence; cited from earlier work
NMDA glutamate receptor = details: animal studies; cited from earlier work
[4] = tested on: youth with Fragile X Syndrome (FXS); test: 10-week open-label trial of acamprosate in youth with FXS: behavioral outcome measures; type: in vivo, human; details: for Aberrant Behavior Checklist-Social Avoidance (ABC-SA), end point mean ± SD: baseline 3.3 ± 2.6, p 0.01; for Clinical Global Impressions-Severity (CGI-S), end point mean ± SD: baseline 4.25 ± 0.45; for Clinical Global Impressions-Severity (CGI-S), end point mean ± SD / ADHD Rating Scale 4th Edition (ADHD-RS), end point mean ± SD: p <0.0001; for Aberrant Behavior Checklist-Social Withdrawal (ABC-SW), end point mean ± SD: baseline 8.8 ± 5.8, p 0.04 (Table 2), baseline 7.33 ± 5.2, p 0.014 (Table 5); for Aberrant Behavior Checklist-Hyperactivity (ABC-H), end point mean ± SD: baseline 16.8 ± 9.1, p 0.009; for ADHD Rating Scale 4th Edition (ADHD-RS), end point mean ± SD: baseline 23.6 ± 10.6; for Vineland Adaptive Behavior Scale (VABS) Communication Domain, end point mean ± SD: baseline 63.4 ± 10.1, p 0.03; for VABS Expressive Communication Subdomain, end point mean ± SD: baseline 69.8 ± 23.0, p 0.003; for Social Responsiveness Scale total score (SRS), end point mean ± SD: baseline 91.3 ± 27.4, p 0.005
Text: The Institutional Review Board (IRB) at an academic medical center approved this study. Thirteen outpatient males and females aged 5 to 17 years with body weight 15 kg were recruited for this study. Written informed consent was obtained from each participant's legal guardian (parent for all children in this report), and subjects provided assent when able. Diagnosis of FXS was confirmed by Southern Blot and PCR results consistent with a greater than 200 CGG repeat expansion in the FMR1 gene with at least partial gene methylation. Subjects had to be free of other significant medical conditions. The concomitant use of psychotropic drugs that are not thought to impact glutamate neurotransmission were allowed so long as the patients experienced stable dosing at least 4 weeks prior to baseline. Subjects were required to have a mental age of greater than 18 months as determined by the Stanford-Binet 5th Edition. Additional inclusion criteria included a CGI-S(Guy 1976) score of at least 4 (“Moderately Ill”). Subjects with a Diagnostic and Statistical Manual of Mental Disorders, 4th Edition, Text Revision (DSM-IV-TR) diagnosis of a psychotic disorder, bipolar disorder, or substance use disorder were excluded from the study. Additionally, subjects with a positive urine pregnancy test, creatinine clearance of <30, active seizure disorder, or other significant medical condition were excluded.
A 10-week, prospective, open-label study design was chosen to gather pilot data for potential future larger-scale, double-blind, placebo-controlled studies in this population.
All subjects underwent a screening and baseline visit followed by follow-up visits every 2 weeks during the 10-week open-label trial period. At the end of weeks 1, 3, and 5 the investigators called the parent to assess drug tolerability and to make dose adjustments as indicated. All subjects received 333 mg/day of acamprosate during the first week of the study. The investigators then increased the dosage to a maximum of 1,998 mg/day (weight>50 kg) or 1,332 mg/day (weight<50 kg) over the first six weeks of the study, if optimal clinical response (CGI-I equal to 1 “very much improved”) had not occurred and intolerable adverse effects had not emerged. The dose maintenance phase lasted 4 weeks at the optimal dosage.
The CGI-S assessment was administered at screen and at baseline as part of the eligibility criteria described above. In this study, the rater scored the CGI-S in regard to severity of symptoms commonly noted in FXS including, but not limited to, inattention/hyperactivity, social impairment, communication impairment, repetitive behavior, irritability, and anxiety. The CGI-S is rated on a scale from 1 to 7 (1=normal, not ill at all; 2=borderline ill; 3=mildly ill; 4=moderately ill; 5=markedly ill; 6=severely ill; 7=among the most extremely ill patients with FXS). The Autism Diagnostic Observation Schedule (ADOS) (Lord, Rutter et al. 1989) was administered at baseline to characterize potential concomitant ASD diagnosis.
The primary outcome measure was the CGI-I. The CGI-I is a scale designed to assess global change from baseline. […] Treatment response was defined by a CGI-I score of 1 “very much improved” or 2 “much improved.” In this study, the CGI-I was utilized as a general global primary outcome measure given the uncertainty as to what specific symptoms/behaviors associated with FXS may be expected to improve or worsen with use of acamprosate. The CGI-I was administered at all visits after baseline.
Secondary outcome measures included all subscales of the ABC (Irritability, Social Withdrawal, Stereotypy, Hyperactivity, and Inappropriate Speech). The ABC is an informant-rated (primary caregiver) measure with confirmed reliability and validity with regard to factor structure, distribution of scores, and sensitivity to change in persons with developmental disability (Aman, Singh et al. 1985). […]

[5] = FXS, 10 weeks, listed as Acamprosate
[6] = baseline to endpoint, FXS, p=0.01
[7] = mean change from baseline to endpoint divided by SD at baseline, FXS

For `CC(=O)NCCCS(=O)(=O)O.[Ca]` [acamprosate, Calcium Acetylhomotaurine], the “youths judged treatment responders” value [1] is given as “five of six”, the “extracellular dopamine levels in the nucleus accumbens” value [2] is given as “elevates extracellular dopamine levels” and the hormone levels [3] is given as “lowers levels of several hormones: leptin, beta endorphin, cortisol”. For the same compound, the “action at the NMDA glutamate receptor” value (NMDA glutamate receptor) was “bind and act as an antagonist”, the “treatment responders (CGI-I score of 1 or 2)” value ([4]; 12 youth with FXS, 10 weeks, mean final dose 1054 mg/day) was 75% and the “mean CGI-I at endpoint” value ([4]; 12 youth with FXS, scale 1-7) was 1.9. The “mean CGI-I values for the responders at week 10” value ([4]; FXS trial, week 10) was 1.92, the “PPVT scores, change with treatment” value ([4]; FXS, 10 weeks) was “did not significantly change” and the “SRS Social Awareness and Autistic Mannerisms subscales, change with treatment” value ([4]; FXS, 10 weeks) was “Improvement was not noted”. The “other VABS domains, change with treatment” value ([4]; FXS, 10 weeks) was “No other changes with treatment were noted”, the “other subscales of the ABC and the CY-BOCS-PDD, change during treatment” value ([4]; FXS, 10 weeks) was “did not change significantly” and the “Aberrant Behavior Checklist-Social Avoidance (ABC-SA), end point mean ± SD” value ([4]; FXS, 10 weeks) was 1.6. For the same compound, the “Aberrant Behavior Checklist-Social Avoidance (ABC-SA), end point mean ± SD” value [4, 5] was 1.6 ± 2.7, the “Clinical Global Impressions-Severity (CGI-S), end point mean ± SD” value ([4]; FXS, 10 weeks) was 3.33 and the “Clinical Global Impressions-Severity (CGI-S), end point mean ± SD” value [4, 5] was 3.33 ± 0.5 and 3.33 ± 0.49. For the same compound, the “Aberrant Behavior Checklist-Inappropriate Speech (ABC-IS), end point mean ± SD” value ([4]; FXS, 10 weeks, baseline 5.2 ± 3.5, p 0.61) was 4.8 ± 3.4, the “Aberrant Behavior Checklist-Stereotypy (ABC-S), end point mean ± SD” value ([4]; FXS, 10 weeks, baseline 6.8 ± 6.8, p 0.09) was 6 ± 6.3 and the “Aberrant Behavior Checklist-Social Withdrawal (ABC-SW), end point mean ± SD” value ([4]; FXS, 10 weeks) was 4.1. For the same compound, the “Aberrant Behavior Checklist-Social Withdrawal (ABC-SW), end point mean ± SD” value [4, 5] was 4.1 ± 6.5, the “Aberrant Behavior Checklist-Irritability (ABC-I), end point mean ± SD” value ([4]; FXS, 10 weeks, baseline 9.9 ± 7.8, p 0.11) was 7.0 ± 8.9 and the “Children's Yale-Brown Obsessive Compulsive Scale Modified for PDD (CY-BOCS-PDD), end point mean ± SD” value ([4]; FXS, 10 weeks, baseline 11.1 ± 2.6, p 0.15) was 9.8 ± 4.1. For the same compound, the “Aberrant Behavior Checklist-Hyperactivity (ABC-H), end point mean ± SD” value ([4]; FXS, 10 weeks) was 11.0, the “Aberrant Behavior Checklist-Hyperactivity (ABC-H), end point mean ± SD” value [4, 5] was 11.0 ± 8.6 and the “ADHD Rating Scale 4th Edition (ADHD-RS), end point mean ± SD” value ([4]; FXS, 10 weeks) was 16.7. For the same compound, the “ADHD Rating Scale 4th Edition (ADHD-RS), end point mean ± SD” value [4, 5] was 16.7 ± 8, the “Vineland Adaptive Behavior Scale (VABS) Communication Domain, end point mean ± SD” value ([4]; FXS, 10 weeks) was 66.6 and the “Vineland Adaptive Behavior Scale (VABS) Communication Domain, end point mean ± SD” value [4, 5] was 66.6 ± 11.2. The “VABS Expressive Communication Subdomain, end point mean ± SD” value ([4]; FXS, 10 weeks) was 78.9, the “VABS Expressive Communication Subdomain, end point mean ± SD” value [4, 5] was 78.9 ± 21.2 and the “Peabody Picture Vocabulary Test (PPVT), end point mean ± SD” value ([4]; FXS, 10 weeks, baseline 85.2 ± 32.0, p 0.53) was 83.3 ± 32. For the same compound, the “Social Responsiveness Scale total score (SRS), end point mean ± SD” value ([4]; FXS, 10 weeks) was 76.4, the “Social Responsiveness Scale total score (SRS), end point mean ± SD” value [4, 5] was 76.4 ± 26.8 and 76.42 ± 26.8 and the “decline of mean ABC-H score” value ([4]; baseline to endpoint, FXS) was 35%. The “decline of mean ABC-SA score” value ([4]; baseline to endpoint, FXS) was 51%, the “decline of mean ABC-SW score” value ([4]; baseline to endpoint, FXS) was 53% and the “decline of mean ADHD-RS score” value ([4]; baseline to endpoint, FXS) was 29%. The “decline of mean total SRS raw score” value ([4]; baseline to endpoint, FXS) was 16%, the “improvement of mean VABS Communication Domain standard score” value ([4]; baseline to endpoint, FXS) was 5% and the “improvement of mean VABS Expressive Communication score” value ([4]; baseline to endpoint, FXS) was 13%. For the same compound, the “decline of SRS Social Motivation subscale” value ([4]; baseline to endpoint, FXS, p=0.003) was 28%, the “decline of SRS Social Cognition subscale” value [4, 6] was 19% and the “decline of SRS Social Communication subscale” value [4, 6] was 14%. The “Effect Size, ABC-H” value [4, 7] was 0.64, the “Effect Size, ABC-SA” value [4, 7] was 0.64 and the “Effect Size, ABC-SW” value [4, 7] was 0.81. For the same compound, the “Effect Size, ADHD-RS” value [4, 7] was 0.65, the “Effect Size, CGI-S” value [4, 7] was 2.0 and the “Effect Size, SRS total score” value [4, 7] was 0.54. The “Effect Size, VABS Communication Domain” value [4, 7] was 0.3, the “Effect Size, VABS Expressive Communication Subdomain” value [4, 7] was 0.4 and the “Effect Size, VABS Communication Domain” value ([4]; mean change from baseline to endpoint divided by SD at baseline, FXS, listed as Acamprosate) was 0.32. The “treatment responders, number of subjects” value ([4]; of 12 youth with FXS) was 9.

— patent US9770423B2, “Modulation sAPP, sAAPα and BDNF levels in individuals diagnosed with FXS and ASD” (Indiana University Research and Technology Corp., priority 2012, dated 2017)
